Paper PMC11111408, “Concurrent inhibition of oncogenic and wild-type RAS-GTP for cancer therapy” (Nature, 2024)
Read-outs that look alike come from different tables or passages of the source.

Tested on: panel of 183 cancer cell lines
Test: Cell panel of 183 cancer cell lines, viability (CTG) at Crown Bioscience
Assay type: cell-based
Details: Homo sapiens
Text: The panel consisted of cell lines with any substitution at position 12 of KRAS, NRAS or HRAS (KRAS(G12X), NRAS(G12X), HRAS(G12X)); substitutions in KRAS, NRAS or HRAS at any position other than 12, 13 and 61 (KRAS(other/VUS), NRAS(other/VUS), HRAS(other/VUS)); other oncogenic mutations in the RAS pathway (ABL1, ALK, ARAF, BRAF, CBL, EGFR, ERBB2, ERBB3, ERBB4, ERRFI1, FGFR1, FGFR2, FGFR3, FGFR4, FLT3, HRAS, IGF1R, JAK2, KIT, MAP2K1, MAP2K2, MAPK1, MET, NF1, NRAS, NTRK1, NTRK2, NTRK3, PDGFRA, PTPN11, RAC1, RAF1, RASA1, RET, RIT1, ROS1 and SOS1); and no oncogenic mutations in the RAS pathway. […] Cells were incubated for 120 h, and cell viability was determined using the CellTiter-Glo Luminescent Cell Viability Assay (CTG) (Promega, G7572) according to the manufacturer’s instructions.

With CCn1c(-c2cc(N3CCN(C4CC4)CC3)cnc2[C@H](C)OC)c2c3cc(ccc31)-c1csc(n1)C[C@H](NC(=O)[C@H]1[C@@H]3COC[C@@H]31)C(=O)N1CCC[C@H](N1)C(=O)OCC(C)(C)C2 [RMC-7977] the EC50 (JHH-2, read-out: RMC-7977 EC50 (M), JHH2, ROS1 fusion, Liver) was 5.37e-09 M, the EC50 (KARPAS-299, read-out: RMC-7977 EC50 (M), KARPAS299, ALK fusion, Blood/lymphoma) was 9.47e-08 M and the EC50 (KATO III, read-out: RMC-7977 EC50 (M), KATOIII, RAS pathway WT, Stomach) was 1.48e-08 M. It also gave an EC50 (KHOS/NP, read-out: RMC-7977 EC50 (M), KHOSNP, KRAS A59T, Bone) of 1.02e-09 M, an EC50 (KM 12L4, read-out: RMC-7977 EC50 (M), KM12L4, NTRK1 fusion, Large intestine/Colorectum) of 5.14e-09 M and an EC50 (KRAS^G12X mutant cell lines, read-out: median EC50) of 2.4e-09 M. The EC50 (KYSE-150, read-out: RMC-7977 EC50 (M), KYSE150, ERBB3 mut, HN/Esophagus) was 5.92e-09 M, the EC50 (KYSE-270, KYSE270, RTKMUT/fusion, read-out: EC50) was 5.99e-09 M and the EC50 (KYSE-270, read-out: RMC-7977 EC50 (M), KYSE270, EGFR mut, HN/Esophagus) was 5.99e-09 M. The EC50 (KYSE-410, read-out: RMC-7977 EC50 (M), KYSE410, KRAS G12C, HN/Esophagus) was 4.07e-09 M, the EC50 (LC-2-ad, read-out: RMC-7977 EC50 (M), LC2AD, RET fusion, Lung) was 5.15e-09 M and the EC50 (LCLC-97TM1, read-out: RMC-7977 EC50 (M), LCLC97TM1, KRAS G12V, Lung) was 3.47e-10 M. It also gave an EC50 (LCLC-103H, read-out: RMC-7977 EC50 (M), LCLC103H, NF1 LOF, Lung) of 3.67e-07 M, an EC50 (LN-229, read-out: RMC-7977 EC50 (M), LN229, PTPN11 mut, Brain&Nerves) of 6.69e-09 M and an EC50 (LS174T, read-out: RMC-7977 EC50 (M), LS174T, KRAS G12D, Large intestine/Colorectum) of 2.24e-08 M. The EC50 (LS180, read-out: RMC-7977 EC50 (M), LS180, KRAS G12D, Large intestine/Colorectum) was 1.62e-08 M, the EC50 (LS-123, read-out: RMC-7977 EC50 (M), LS123, KRAS G12S, Large intestine/Colorectum) was 1.29e-09 M and the EC50 (LS-513, read-out: RMC-7977 EC50 (M), LS513, KRAS G12D, Large intestine/Colorectum) was 1.2e-09 M. It also gave an EC50 (LS-1034, read-out: RMC-7977 EC50 (M), LS1034, KRAS A146T, Large intestine/Colorectum) of 2.51e-08 M, an EC50 (LoVo, read-out: RMC-7977 EC50 (M), LOVO, KRAS G13D, Large intestine/Colorectum) of 5.62e-08 M and an EC50 (MCF7, read-out: RMC-7977 EC50 (M), MCF7, RAS pathway WT, Breast) greater than 1e-06 M. For the same molecule, the EC50 (MES-SA, read-out: RMC-7977 EC50 (M), MESSA, RAS pathway WT, Uterus) was greater than 1e-06 M, the EC50 (MFE-296, read-out: RMC-7977 EC50 (M), MFE296, RAS pathway WT, Uterus) was greater than 1e-06 M and the EC50 (MIA PaCa-2, read-out: RMC-7977 EC50 (M), MIAPACA2, KRAS G12C, Lung) was 4.27e-09 M. It also gave an EC50 (MKN-1, read-out: RMC-7977 EC50 (M), MKN1, RAS pathway WT, Stomach) of 4.87e-08 M, an EC50 (MKN-45, read-out: RMC-7977 EC50 (M), MKN45, MET amp, Stomach) of 8.64e-09 M and an EC50 (MeWo, read-out: RMC-7977 EC50 (M), MEWO, NF1 LOF, Skin) of 4.86e-09 M. The EC50 (NCI-H23, read-out: RMC-7977 EC50 (M), NCIH23, KRAS G12C, Lung) was 8.51e-10 M, the EC50 (NCI-H358, read-out: RMC-7977 EC50 (M), NCIH358, KRAS G12C, Lung) was 6.31e-10 M and the EC50 (NCI-H441, read-out: RMC-7977 EC50 (M), NCIH441, KRAS G12V, Lung) was 3.89e-10 M. It also gave an EC50 (NCI-H460, read-out: RMC-7977 EC50 (M), NCIH460, KRAS Q61H, Lung) of 6.17e-09 M, an EC50 (NCI-H508, read-out: RMC-7977 EC50 (M), NCIH508, BRAF mut other, Large intestine/Colorectum) of 1.21e-07 M and an EC50 (NCI-H520, read-out: RMC-7977 EC50 (M), NCIH520, RAS pathway WT, Lung) of 2.85e-08 M. It also gave an EC50 (NCI-H716, read-out: RMC-7977 EC50 (M), NCIH716, KRAS R97I, Large intestine/Colorectum) of 2.75e-09 M, an EC50 (NCI-H727, read-out: RMC-7977 EC50 (M), NCIH727, KRAS G12V, Lung) of 7.24e-10 M and an EC50 (NCI-H747, read-out: RMC-7977 EC50 (M), NCIH747, KRAS G13D, Large intestine/Colorectum) of 1.82e-09 M. It also gave an EC50 (NCI-H1155, read-out: RMC-7977 EC50 (M), NCIH1155, KRAS Q61H, Lung) greater than 1e-06 M, an EC50 (NCI-H1299, read-out: RMC-7977 EC50 (M), NCIH1299, NRAS Q61K, Lung) of 1.78e-09 M and an EC50 (NCI-H1373, read-out: RMC-7977 EC50 (M), NCIH1373, KRAS G12C, Lung) of 1.78e-09 M. It also gave an EC50 (NCI-H1395, read-out: RMC-7977 EC50 (M), NCIH1395, BRAF mut other, Lung) greater than 1e-06 M, an EC50 (NCI-H1581, read-out: RMC-7977 EC50 (M), NCIH1581, RAS pathway WT, Lung) of 5.55e-08 M and an EC50 (NCI-H1650, read-out: RMC-7977 EC50 (M), NCIH1650, EGFR mut, Lung) of 4.04e-08 M. The EC50 (NCI-H1666, read-out: RMC-7977 EC50 (M), NCIH1666, BRAF mut other, Lung) was 8.2e-09 M, the EC50 (NCI-H1792, read-out: RMC-7977 EC50 (M), NCIH1792, KRAS G12C, Lung) was 1.91e-09 M and the EC50 (NCI-H1838, read-out: RMC-7977 EC50 (M), NCIH1838, NF1 LOF, Lung) was 8.76e-09 M. It also gave an EC50 (NCI-H1915, read-out: RMC-7977 EC50 (M), NCIH1915, HRAS Q61L, Lung) of 1.62e-08 M, an EC50 (NCI-H1944, read-out: RMC-7977 EC50 (M), NCIH1944, KRAS G13D, Lung) of 3.16e-08 M and an EC50 (NCI-H1975, read-out: RMC-7977 EC50 (M), NCIH1975, EGFR mut, Lung) of 4.07e-09 M. It also gave an EC50 (NCI-H1993, read-out: RMC-7977 EC50 (M), NCIH1993, MET amp, Lung) of 4.57e-09 M, an EC50 (NCI-H2009, read-out: RMC-7977 EC50 (M), NCIH2009, KRAS G12A, Lung) of 5.75e-09 M and an EC50 (NCI-H2087, read-out: RMC-7977 EC50 (M), NCIH2087, NRAS Q61K, Lung) of 5.89e-10 M. It also gave an EC50 (NCI-H2110, read-out: RMC-7977 EC50 (M), NCIH2110, PTPN11 mut, Lung) of 7.95e-09 M, an EC50 (NCI-H2122, read-out: RMC-7977 EC50 (M), NCIH2122, KRAS G12C, Lung) of 9.33e-10 M and an EC50 (NCI-H2172, read-out: RMC-7977 EC50 (M), NCIH2172, RAS pathway WT, Lung) of 4.73e-07 M. For the same molecule, the EC50 (NCI-H2228, read-out: RMC-7977 EC50 (M), NCIH2228, ALK fusion, Lung) was 1.41e-08 M, the EC50 (NCI-H3122, read-out: RMC-7977 EC50 (M), NCIH3122, ALK fusion, Lung) was 4.62e-09 M and the EC50 (NCI-H3255, read-out: RMC-7977 EC50 (M), NCIH3255, EGFR mut, Lung) was 6.28e-09 M. The EC50 (NF1^LOF cell lines, read-out: median EC50) was 3.25e-08 M, the EC50 (NRAS and HRAS mutant cell lines, read-out: median EC50) was 6.76e-09 M and the EC50 (NUGC-4, read-out: RMC-7977 EC50 (M), NUGC4, NF1 LOF, Stomach) was 3.16e-09 M.
